Reference: patent US20220096516A1, “OLIGONUCLEOTIDE MOLECULE AND APPLICATION THEREOF IN TUMOR THERAPY” (Ractigen Therapeutics, priority 2019, published 2022)
d = 2'-deoxy (DNA); r = 2'-OH (RNA)

System: LHPP gene
Assay: High-throughput screening of saRNAs targeting LHPP promoter: LHPP mRNA by one-step RT-qPCR in Huh7 cells
Format: cell-based, human
Settings: 10 nM saRNA, 72 hours, relative to control (Mock)
Description: Human liver cancer cell line Huh7 was cultured in DMEM medium (Gibco), containing 10% of calf serum (Sigma-Aldrich) and 1% of penicillin/streptomycin (Gibco). The cells were cultured at 5% CO2 and 37° C. According to the instructions provided by the manufacturer, RNAiMax (Invitrogen, Carlsbad, Calif.) was used to transfect small activating RNAs at a concentration of 10 nM (unless otherwise specified).
At the end of transfection, the media were discarded, and each well was washed with 150 μL of PBS once. After discarding the PBS, 50 μL of cell lysis buffer (Takara) was added to each well and incubated at room temperature for 5 min. 1 μL of the resulted cell lysis was taken from each well and analyzed by qPCR on an ABI 7500 fast real-time PCR system (Applied Biosystems) using a one-step TB Green™ PrimeScrip™ RT-PCR kit II (Takara, RR086A) Each transfection sample was repeatedly amplified in 3 replicate wells.
Reaction conditions were as follows: reverse transcription reaction (stage 1): 5 min at 42° C., 10 s at 95° C.; PCR reaction (stage 2): 5 s at 95° C., 20 s at 60° C., 45 cycles of amplification. HPRT1 and TBP were used as internal reference genes. PCR primers used for amplifying LHPP, HPRT1 and TBP genes are shown in Table 2, wherein LHPP was amplified using the LHPP F1/R1 primer pair.
To calculate the relative expression level (Erel) of LHPP (target gene) in an saRNA-transfected sample relative to control treatment (Mock), the Ct values of the target gene and the two internal reference genes were substituted into formula 1
Erel=2^(CtT^m^-CtT^s^)/((2^(CtR1^m^-CtR1^s^)*2^(CtR2^m^-CtR2^s^))^(1/2))
wherein CtTm was the Ct value of the target gene from the control (Mock) sample; CtTs was the Ct value of the target gene from the saRNA-treated sample; CtR1m was the Ct value of the internal reference gene 1 from the control (Mock) sample; CtR1s was the Ct value of the internal reference gene 1 from the saRNA-treated sample; CtR2m was the Ct value of the internal reference gene 2 from the control (Mock) sample; and CtR2s was the Ct value of the internal reference gene 2 from the saRNA-treated sample.
In order to obtain saRNAs capable of activating LHPP transcription, Huh7 cells were transfected with each of the aforementioned 290 saRNAs with a transfection concentration of 10 nM, and 72 hours later, according to the same method as described above, the cells were lysed and analyzed by one-step RT-qPCR to obtain the relative (compared with the control (Mock)) expression level of LHPP gene for each saRNA-treated sample. […] The observed maximum activation and maximum inhibition is 3.46 fold and 0.49 fold, respectively, saRNAs with activating activity are referred to as activating saRNAs, and the saRNAs with inhibiting activity are referred to as inhibiting saRNAs.

RAG7-29: saRNA duplex; sense CACCCGGUCUUCUUGCCCUTT (SEQ ID NO: 79), antisense AGGGCAAGAAGACCGGGUGTT (SEQ ID NO: 243) (sugars from the 5' end r19 d2, backbone not given here)
Fold of changes in relative LHPP mRNA expression level: 1.28 fold
Fold of changes in relative LHPP mRNA expression level (log2): 0.35 log2

RAG7-31: saRNA duplex; sense UGCACCCGGUCUUCUUGCCTT (SEQ ID NO: 94), antisense GGCAAGAAGACCGGGUGCATT (SEQ ID NO: 258) (sugars from the 5' end r19 d2, backbone not given here)
Fold of changes in relative LHPP mRNA expression level: 1.23 fold
Fold of changes in relative LHPP mRNA expression level (log2): 0.30 log2

RAG7-32: saRNA duplex; sense UUGCACCCGGUCUUCUUGCTT (SEQ ID NO: 44), antisense GCAAGAAGACCGGGUGCAATT (SEQ ID NO: 208) (sugars from the 5' end r19 d2, backbone not given here)
Fold of changes in relative LHPP mRNA expression level: 1.40 fold
Fold of changes in relative LHPP mRNA expression level (log2): 0.49 log2

RAG7-33: saRNA duplex; sense UUUGCACCCGGUCUUCUUGTT (SEQ ID NO: 119), antisense CAAGAAGACCGGGUGCAAATT (SEQ ID NO: 283) (sugars from the 5' end r19 d2, backbone not given here)
Fold of changes in relative LHPP mRNA expression level: 1.18 fold
Fold of changes in relative LHPP mRNA expression level (log2): 0.24 log2

RAG7-34: saRNA duplex; sense GUUUGCACCCGGUCUUCUUTT (SEQ ID NO: 26), antisense AAGAAGACCGGGUGCAAACTT (SEQ ID NO: 190) (sugars from the 5' end r19 d2, backbone not given here)
Fold of changes in relative LHPP mRNA expression level: 1.51 fold
Fold of changes in relative LHPP mRNA expression level (log2): 0.59 log2

RAG7-35: saRNA duplex; sense GGUUUGCACCCGGUCUUCUTT (SEQ ID NO: 24), antisense AGAAGACCGGGUGCAAACCTT (SEQ ID NO: 188) (sugars from the 5' end r19 d2, backbone not given here)
Fold of changes in relative LHPP mRNA expression level: 1.53 fold
Fold of changes in relative LHPP mRNA expression level (log2): 0.61 log2

RAG7-43: saRNA duplex; sense CAGUUCCGGGUUUGCACCCTT (SEQ ID NO: 93), antisense GGGUGCAAACCCGGAACUGTT (SEQ ID NO: 257) (sugars from the 5' end r19 d2, backbone not given here)
Fold of changes in relative LHPP mRNA expression level: 1.23 fold
Fold of changes in relative LHPP mRNA expression level (log2): 0.30 log2

RAG7-44: saRNA duplex; sense CCAGUUCCGGGUUUGCACCTT (SEQ ID NO: 121), antisense GGUGCAAACCCGGAACUGGTT (SEQ ID NO: 285) (sugars from the 5' end r19 d2, backbone not given here)
Fold of changes in relative LHPP mRNA expression level: 1.18 fold
Fold of changes in relative LHPP mRNA expression level (log2): 0.24 log2

RAG7-86: saRNA duplex; sense CCGUUUCAGGGGCGAGUGATT (SEQ ID NO: 137), antisense UCACUCGCCCCUGAAACGGTT (SEQ ID NO: 301) (sugars from the 5' end r19 d2, backbone not given here)
Fold of changes in relative LHPP mRNA expression level: 1.15 fold
Fold of changes in relative LHPP mRNA expression level (log2): 0.20 log2

RAG7-89: saRNA duplex; sense ACACCGUUUCAGGGGCGAGTT (SEQ ID NO: 104), antisense CUCGCCCCUGAAACGGUGUTT (SEQ ID NO: 268) (sugars from the 5' end r19 d2, backbone not given here)
Fold of changes in relative LHPP mRNA expression level: 1.21 fold
Fold of changes in relative LHPP mRNA expression level (log2): 0.28 log2

RAG7-92: saRNA duplex; sense AGGACACCGUUUCAGGGGCTT (SEQ ID NO: 155), antisense GCCCCUGAAACGGUGUCCUTT (SEQ ID NO: 319) (sugars from the 5' end r19 d2, backbone not given here)
Fold of changes in relative LHPP mRNA expression level: 1.11 fold
Fold of changes in relative LHPP mRNA expression level (log2): 0.15 log2

RAG7-93: saRNA duplex; sense AAGGACACCGUUUCAGGGGTT (SEQ ID NO: 144), antisense CCCCUGAAACGGUGUCCUUTT (SEQ ID NO: 308) (sugars from the 5' end r19 d2, backbone not given here)
Fold of changes in relative LHPP mRNA expression level: 1.14 fold
Fold of changes in relative LHPP mRNA expression level (log2): 0.19 log2

RAG7-94: saRNA duplex; sense AAAGGACACCGUUUCAGGGTT (SEQ ID NO: 13), antisense CCCUGAAACGGUGUCCUUUTT (SEQ ID NO: 177) (sugars from the 5' end r19 d2, backbone not given here)
Fold of changes in relative LHPP mRNA expression level: 1.64 fold
Fold of changes in relative LHPP mRNA expression level (log2): 0.72 log2

RAG7-95: saRNA duplex; sense AAAAGGACACCGUUUCAGGTT (SEQ ID NO: 12), antisense CCUGAAACGGUGUCCUUUUTT (SEQ ID NO: 176) (sugars from the 5' end r19 d2, backbone not given here)
Fold of changes in relative LHPP mRNA expression level: 1.67 fold
Fold of changes in relative LHPP mRNA expression level (log2): 0.74 log2

RAG7-96: saRNA duplex; sense GAAAAGGACACCGUUUCAGTT (SEQ ID NO: 105), antisense CUGAAACGGUGUCCUUUUCTT (SEQ ID NO: 269) (sugars from the 5' end r19 d2, backbone not given here)
Fold of changes in relative LHPP mRNA expression level: 1.21 fold
Fold of changes in relative LHPP mRNA expression level (log2): 0.27 log2

RAG7-97: saRNA duplex; sense CGAAAAGGACACCGUUUCATT (SEQ ID NO: 71), antisense UGAAACGGUGUCCUUUUCGTT (SEQ ID NO: 235) (sugars from the 5' end r19 d2, backbone not given here)
Fold of changes in relative LHPP mRNA expression level: 1.29 fold
Fold of changes in relative LHPP mRNA expression level (log2): 0.37 log2

RAG7-98: saRNA duplex; sense CCGAAAAGGACACCGUUUCTT (SEQ ID NO: 145), antisense GAAACGGUGUCCUUUUCGGTT (SEQ ID NO: 309) (sugars from the 5' end r19 d2, backbone not given here)
Fold of changes in relative LHPP mRNA expression level: 1.14 fold
Fold of changes in relative LHPP mRNA expression level (log2): 0.19 log2

RAG7-100: saRNA duplex; sense UUCCGAAAAGGACACCGUUTT (SEQ ID NO: 125), antisense AACGGUGUCCUUUUCGGAATT (SEQ ID NO: 289) (sugars from the 5' end r19 d2, backbone not given here)
Fold of changes in relative LHPP mRNA expression level: 1.17 fold
Fold of changes in relative LHPP mRNA expression level (log2): 0.22 log2

RAG7-102: saRNA duplex; sense GCUUCCGAAAAGGACACCGTT (SEQ ID NO: 96), antisense CGGUGUCCUUUUCGGAAGCTT (SEQ ID NO: 260) (sugars from the 5' end r19 d2, backbone not given here)
Fold of changes in relative LHPP mRNA expression level: 1.23 fold
Fold of changes in relative LHPP mRNA expression level (log2): 0.30 log2

RAG7-103: saRNA duplex; sense AGCUUCCGAAAAGGACACCTT (SEQ ID NO: 72), antisense GGUGUCCUUUUCGGAAGCUTT (SEQ ID NO: 236) (sugars from the 5' end r19 d2, backbone not given here)
Fold of changes in relative LHPP mRNA expression level: 1.29 fold
Fold of changes in relative LHPP mRNA expression level (log2): 0.37 log2

RAG7-104: saRNA duplex; sense AAGCUUCCGAAAAGGACACTT (SEQ ID NO: 43), antisense GUGUCCUUUUCGGAAGCUUTT (SEQ ID NO: 207) (sugars from the 5' end r19 d2, backbone not given here)
Fold of changes in relative LHPP mRNA expression level: 1.41 fold
Fold of changes in relative LHPP mRNA expression level (log2): 0.50 log2
